Assay results from patent US11661404B2, “Prodrug compounds activated by AKR1C3 and their use for treating hyperproliferative disorders” (priority 2018, dated 2023).

Assays:
[1] = Solubility by HPLC in water and lactate buffer; format: physicochemical; details: lactate buffer (pH 4), room temperature
Procedure: (§1) The solubility and stability of compound 641 was studied by HPLC in lactate buffer (pH 4) and water as the free base and the mesylate salt (641.Ms) at 0° C. and room temperature (RT). […] However, this was improved considerably by formulation as the mesylate salt, producing a solubility of greater than 100 mmol/L in lactate buffer and greater than 70 mmol/L in water. […] This stability was improved considerably by reducing the temperature of the solution to 0° C.

[2] = test system: mixed HCT116 colon cancer MCLs containing 5% AKR1C3 over-expressing cells; experiment: High cell density multicellular layer (MCL) assay, bystander cell killing; format: cell-based, human
Procedure: The MCL model utilised for this evaluation consisted of AKR1C3 overexpressing (activator) cells or non-AKR1C3 expressing (target) cells or a mixture of these two cell types grown in a ratio of 5:95. The mixture of the two distinct cell populations enabled the determination of the extent of the transfer of cytotoxic metabolites from the activator cell to the target cell population.
Plating efficiencies were calculated as the fraction of colonies formed relative to the number of cells seeded. The compound concentrations for 10% survival (C10) of target cells grown without activators (T), targets in co-culture (Tc) and activators in co-culture (Ac) was determined by interpolation. Bystander effect efficiency (BEE) was calculated as (Log C10T−Log C10Tc)/(Log C10T−Log C10Ac), where BEE is the measure of cytotoxic metabolite transfer. In contrast to PR-104A, preferred compounds of the invention have a minimal BEE, reducing off-target side effects from ablation of neighbouring non-AKR1C3 expressing cells.
Millicell-CM membrane inserts were coated in calf-skin collagen type III. The collagen solution was prepared dissolving in sterile 0.01 N HCl to a concentration of 3 mg/mL. The collagen solution was diluted (1:5) in sterile 60% ethanol and 100 μL of this solution was used to coat the membrane inserts and left overnight in a sterile environment to dry.
Prior to adding cells, the inserts were sterilised in 70% ethanol and left to aerate in a sterile environment in order for the ethanol to evaporate. A sterile polyethylene foam ring was placed around each insert to enable subsequent floatation. Single cell suspensions of 1×10^6 cells in a volume of 500 μL was added to each insert. When mixtures of cells were required, 1×10^6 cells of the mixed cell suspension (in 500 μL) were added to each insert. The type of mixed MCLs used in experiments consisted of 95% HCT116^NeoR and 5% HCT116^AKR1C3 cells. The HCT116^NeoR ells were used in this mixture as an AKR1C3 negative cell line which can subsequently be grown in selective medium containing Geneticin (G418), and which enabled discrimination with the AKR1C3 positive cell line (which can be grown in selective medium containing puromycin). The inserts containing cells were placed in a sterile screw-top plastic jar containing 300 mL of α-MEM+10% v/v FBS+1% PSG, with a maximum of 6 inserts in a jar. The inserts were left floating in the medium for 4 hours in a humidified incubator (37° C., 5% CO2) to enable cells to adhere to the collagen coat and then submerged in the medium with a sterile stainless steel grid. Cells were left to grow and form MCLs on the inserts for a period of 3 days by placing the jars in a 37° C. water bath with continuous magnetic stirring of the medium.
Three days after growth of cells as MCLs in inserts, each insert was inspected with an inverted phase contrast microscope to ensure uniform growth of cells. Suitable MCLs were transferred to 25 mL glass vessels containing 10 mL of medium (α-MEM+10% v/v FBS+1% PSG) with the required drug concentrations. Each insert in the glass vessel was held by a stainless steel loop attached to the lid. The vessels were placed in a 37° C. water bath. Ports on the lid of each bottle enabled gassing with the required gas phase. The glass vessels containing the MCL inserts and drug were left in the 37° C. water bath for 5 hours with continuous gassing and magnetic stirring of medium. The gas phase used was 5% CO2:95% O2, with the high oxygen concentration used to minimise bioreductive drug activation by endogenous one-electron reductases.
After the 5 hour incubation, each insert was trypsinised in 0.07% trypsin in PBS for 10 minutes at 37° C. to dissociate the MCL into a single cell suspension. The dissociated cells were incubated for a further 10 minutes in α-MEM containing 10% FBS and 100 μg/ml DNAase I. Cells were then counted on a Z2 Coulter® Particle Count and Size Analyzer and resuspended in fresh medium. […]

[3] = Stability in solution by HPLC in water and lactate buffer; format: physicochemical; details: room temperature
Procedure: as §1

[4] = 95% HCT116^NeoR : 5% HCT116^AKR1C3, 5 hours

For `CN1CCN(S(=O)(=O)c2cc([N+](=O)[O-])ccc2N(CCOS(C)(=O)=O)CCOS(C)(=O)=O)CC1` [Compound 641, ((2-((4-methylpiperazin-1-yl)sulfonyl)-4-nitrophenyl)azanediyl)bis(ethane-2,1-diyl) dimethanesulfonate], the “Solubility, Lactate Buffer, RT” value [1] was 3.4 mM, the “shift in the C10 from T to Tc” value ([2]; 5% AKR1C3-positive cells) was 9 fold and the “activators in co-culture C10 (Ac)” value [2, 4] was 0.0054 µM. For the same compound, the “targets in co-culture C10 (Tc)” value [2, 4] was 1.27 µM, the “AKR1C3-positive HCT116 cells clonogenically sterilised” value ([2]; concentrations 0.002 μM to 0.2 μM, FIG. 8) was “at least 99.9%” and the “sensitivity of AKR1C3 expressing cells vs AKR1C3-negative cells to clonogenic cell kill (T/Ac)” value ([2]; high cell density) was 2055 fold. For the same compound, the “target cell C10 (T), concentration for 10% survival” value ([2]; target cells grown without activators, 5 hours exposure, clonogenic survival) was 11.1 µM, the “Stability (% Parent after 24 hours), Lactate Buffer, RT” value ([3]; lactate buffer (pH 4)) was 54.4% and the half-life ([3]; pH 4, lactate buffer) was roughly 24 h.
